In the Biogen ADME set (Fang et al. 2023):
Converted amounts (≈) assume the structure as drawn.

Conditions: for aqueous solubility: pH 6.8

MDR1-MDCK efflux ratio | intrinsic clearance, human liver microsomes [mL/min/kg] | intrinsic clearance, rat liver microsomes [mL/min/kg] | aqueous solubility [µg/mL] | fraction unbound, human plasma | fraction unbound, rat plasma | SMILES
2.76 | ≤ 4.74 | 126 | 62 (≈ 180 µM) | – | – | Cn1cc(C2CCN(CC(=O)N3CCc4sccc4C3)CC2)cn1
19.3 | 56 | 605 | 54.4 (≈ 157 µM) | – | – | O=C(c1ccccc1-n1cccn1)N1CCN(Cc2cccnc2)CC1
0.829 | 191 | 2760 | – | – | – | CN(Cc1cccc(Cl)c1Cl)Cc1cc(=O)n(C)c(=O)n1C
0.734 | ≤ 4.74 | 134 | – | – | – | Clc1cnc(NCC2(CN3CCCC3)CC2)nc1
17 | 23.8 | 5470 | 32.2 (≈ 101 µM) | – | – | Cc1cc(NCc2ccnc(N3CCCC3)c2)c2ccccc2n1
35.1 | 50.6 | 390 | – | – | – | CNCc1cc(N(C)C)nc(C2CCCN2C(=O)CCc2c[nH]c3ccccc23)n1 (stereo not drawn)
– | 19.9 | 186 | – | – | – | Cc1ccc2[nH]c(CNC(=O)c3cc(C(F)F)nn3C)nc2c1C
– | – | – | 2.41 (≈ 7.51 µM) | – | – | CN(C)C(=O)Cc1nc(-c2cc3cc(Cl)ccc3o2)cs1
0.737 | – | – | 0.54 (≈ 1.56 µM) | – | – | O=C1/C(=C2/CCCCCN2)C(Nc2ccccc2)=NN1c1ccccc1
14.9 | ≤ 4.74 | 15.4 | – | – | – | CC(=O)N(C)[C@H]1CC2(CCN(C(=O)COc3ccc(F)cc3F)CC2)OC[C@]1(C)O
0.664 | 6.72 | 34.6 | 37.8 (≈ 163 µM) | – | – | Cc1ccc(C(=O)Nc2ncccc2C)s1
0.565 | 123 | 1950 | 9.67 (≈ 28.9 µM) | – | – | O=C(NCCc1ccc2c(c1)OCCO2)c1ccc2ccccc2n1
39 | 29.1 | 56.4 | – | – | – | Cc1cc(C(=O)N(C)C2CCSCC2)c(=O)n(C)c1C
47.2 | 15 | 142 | 32.2 (≈ 87.5 µM) | – | – | CCc1nnsc1C(=O)Nc1cccc(-c2nnc3n2CCCCC3)c1
– | ≤ 4.74 | ≤ 10.7 | – | – | – | CSC[C@H]1CN(Cc2c[nH]c3c(N)ncnc23)C[C@@H]1O
0.631 | ≤ 4.74 | 28 | 29.3 (≈ 128 µM) | – | – | CCCCNC(=O)c1cccc2ncccc12

MDR1-MDCK efflux ratio | intrinsic clearance, human liver microsomes [mL/min/kg] | intrinsic clearance, rat liver microsomes [mL/min/kg] | aqueous solubility [µg/mL] | fraction unbound, human plasma | fraction unbound, rat plasma | SMILES
5.96 | 11.3 | 23.8 | – | – | – | O=C(Nc1ccccc1)Nc1ccc(-c2ccc(C(=O)[C@H]3CCC[C@@H]3C(=O)O)cc2)cc1
– | – | – | 63.5 (≈ 129 µM) | – | – | CC1(C)CC[C@]2(C(=O)O)CC[C@]3(C)C(C(=O)C=C4[C@@]5(C)C=C(C#N)C(=O)C(C)(C)[C@@H]5CC[C@]43C)C2C1 (stereo partly drawn)
0.707 | 102 | 936 | 77.6 (≈ 195 µM) | – | – | CN(C)C(=O)COC(=O)Cc1ccc(OC(=O)c2ccc(NC(=N)N)cc2)cc1
0.613 | 19.9 | 225 | 45.1 (≈ 161 µM) | – | – | Cc1ccc(F)c(N(C#N)Cc2nccn2C(F)F)c1
– | 555 | 910 | – | – | – | CC1(C)[C@@H]2C[C@H]1[C@@]1(O)[C@@H](C2)Oc2c(ccc(O)c2C(=O)NCCc2ccccn2)[C@@H]1O
– | – | – | 44.6 (≈ 181 µM) | – | – | Cc1ccc(F)c(N(C#N)Cc2nnc(C)o2)c1
18 | ≤ 4.74 | 11.1 | 68.5 (≈ 227 µM) | – | – | CCOc1ccc(CC(=O)NCCn2cccnc2=O)cc1
– | 62.8 | 653 | – | – | – | Cc1nccc(-c2cccc(NCC(=O)NCc3ccccc3)c2)n1
– | 57 | 960 | 49.5 (≈ 162 µM) | – | – | CSCC(=O)N1CCc2[nH]nc(-c3cccc(F)c3)c2C1
– | – | – | 21.9 (≈ 77.5 µM) | – | – | CCc1nc(COc2ccccc2Br)no1
2.08 | ≤ 4.74 | ≤ 10.7 | 15.7 (≈ 55.4 µM) | – | – | O=C(O)c1cc(/C=C/c2csnn2)nc2ccccc12
6.11 | 10.2 | 108 | – | – | – | Cc1cnn(CCNC(=O)C2(Cn3cccn3)CC2)c1
– | – | – | 0.55 (≈ 1.8 µM) | – | – | O=C(Nc1nc2ccccc2[nH]1)c1cc(Cl)ccc1Cl
1.31 | ≤ 4.74 | 14.1 | – | 1 | 0.838 | CC(=O)Nc1ncc(CN2CCCC[C@@H]2C)s1
0.662 | 18.3 | 442 | – | – | – | C/C(=C/COc1c2occc2cc2ccc(=O)oc12)CO
– | 11 | 305 | – | – | – | Cc1ccn(-c2ccc(NCC3CC3)nn2)n1
